Each block holds one compound with its values, some of them ahead of it.
How the values were obtained:
Format in all cases: biochemical, Lithobates sylvaticus
[1] = test system: T1, Bound AMPD (wood frog skeletal muscle, frozen frogs); test: AMP deaminase activity, glutamate dehydrogenase-coupled, NADH […] nm, Hill fit; conditions: Hill coefficient 1.12, pH 7.2, 25°C, no glucose, bound enzyme, read-out: S0.5 AMP
T1 construct: gene AMPD1; high phosphate form (sites not known); not purified

[2] = test system: T2, Free AMPD (wood frog skeletal muscle, control frogs); test: AMP deaminase activity, […] nm absorbance, Hill fit; conditions: after Sephadex G-50 desalting, Hill coefficient 2.37, pH 7.2, 25°C, read-out: After spun columns
T2 construct: gene AMPD1; native, soluble (free) form in skeletal muscle extract of 5°C-acclimated control frogs, Sephadex G-50 desalted, not purified

[3] = test system: T3, Bound AMPD (wood frog skeletal muscle, control frogs); test: AMP deaminase activity, glutamate dehydrogenase-coupled, NADH […] nm, Hill fit; conditions: Hill coefficient 1.03, pH 7.2, 25°C, no glucose, bound enzyme, read-out: S0.5 AMP
T3 construct: gene AMPD1; low phosphate form; not purified

[4] = target: T2, Free AMPD (wood frog skeletal muscle, control frogs); test: AMP deaminase activity, […] nm absorbance; conditions: 0.5 mM AMP, pH 7.2, 25°C, allosteric
[5] = target: T3, Bound AMPD (wood frog skeletal muscle, control frogs); test: AMP deaminase activity, glutamate dehydrogenase-coupled, NADH […] nm; conditions: activation constant (half-maximal activation, 1.25-fold), as Mg·ADP, 0.5 mM AMP, pH 7.2, 25°C, bound enzyme, allosteric
[6] = target: T1, Bound AMPD (wood frog skeletal muscle, frozen frogs); test: as above; conditions: activation constant (half-maximal activation, 3.42-fold), as Mg·ADP, 0.5 mM AMP, pH 7.2, 25°C, bound enzyme, allosteric
[7] = target: T1, Bound AMPD (wood frog skeletal muscle, frozen frogs); test: as above; conditions: as Mg·GTP, 0.5 mM AMP, pH 7.2, 25°C, bound enzyme, allosteric
[8] = target: T2, Free AMPD (wood frog skeletal muscle, control frogs); test: AMP deaminase activity, […] nm absorbance; conditions: as Mg·GTP, 0.5 mM AMP, pH 7.2, 25°C, allosteric
[9] = target: T3, Bound AMPD (wood frog skeletal muscle, control frogs); test: AMP deaminase activity, glutamate dehydrogenase-coupled, NADH […] nm; conditions: as Mg·GTP, 0.5 mM AMP, pH 7.2, 25°C, bound enzyme, allosteric

- Km [1]: 1500 ± 190 µM
- Km [2]: 1350 ± 80 µM
- Km [3]: 460 ± 30 µM
Structure (SMILES): Nc1ncnc2c1ncn2[C@@H]1O[C@H](COP(=O)(O)O)[C@@H](O)[C@H]1O [AMP]

- EC50 ([4]; activation constant (half-maximal activation, 2.17-fold), as Mg·ADP): 1120 ± 150 µM
- EC50 [5]: 3750 ± 370 µM
- EC50 [6]: 1140 ± 100 µM
Structure (SMILES): Nc1ncnc2c1ncn2[C@@H]1O[C@H](COP(=O)(O)OP(=O)(O)O)[C@@H](O)[C@H]1O [Mg·ADP]

- EC50 ([4]; activation constant (half-maximal activation, 1.53-fold), as Mg·ATP): 1900 ± 30 µM
Structure (SMILES): Nc1ncnc2c1ncn2[C@@H]1O[C@H](COP(=O)(O)OP(=O)(O)OP(=O)(O)O)[C@@H](O)[C@H]1O [Mg·ATP]

- IC50 [7]: 100 ± 10 µM
- IC50 [8]: 150 ± 20 µM
- IC50 [9]: 80 ± 10 µM
Structure (SMILES): Nc1nc2c(ncn2[C@@H]2O[C@H](COP(=O)(O)OP(=O)(O)OP(=O)(O)O)[C@@H](O)[C@H]2O)c(=O)[nH]1 [Mg·GTP]

Source: publication PMC2375871, “Regulation of 5'-adenosine monophosphate deaminase in the freeze tolerant wood frog, Rana sylvatica” (BMC Biochemistry, 2008)
